Patent US20160207969A1, “CLOSTRIDIUM DIFFICILE TARGETING MOIETIES AND CONSTRUCTS COMPRISING SAID MOIETIES” (C3 Jian, Inc., priority 2014, published 2016)
Ends that are not written are not given here.

Tests used:
[1] = test system: C. difficile isolate CD1382 (ATCC 630, strain 1382); settings: ATCC 630, 24 h
[2] = test system: C. difficile isolate CD1803 (ATCC BAA-1803); settings: ATCC BAA-1803, 24 h
[3] = test system: C. difficile isolate CD1875 (ATCC BAA-1875); settings: ATCC BAA-1875, 24 h
[4] = test system: C. difficile isolate CD43255 (ATCC 43255); settings: ATCC 43255, 24 h
[5] = test system: C. difficile isolate CD43601 (ATCC 43601, non-toxigenic); settings: ATCC 43601, 24 h
B. fragilis [6] = settings: 24 h
L. casei = settings: 24 h
B. fragilis [7] = assay: Peptide killing kinetics (CFU plating, co-culture); assay type: cell-based; settings: for activity on un-targeted organism B. fragilis compared to the levels seen on C. difficile isolate 1803: killing kinetics; for surviving B. fragilis: through 2 hours of STAMP exposure
[8] = test system: C. difficile isolate 1803; settings: Clostridium difficile, 15 min
Trubrum = assay: MIC of antimicrobial peptides (Table 3); assay type: cell-based
C. difficile = assay: MIC of antimicrobial peptides (Table 3); assay type: cell-based; settings: unit not given

| Substance | MIC values [1] [µg/mL] | MIC values [2] [µg/mL] | MIC values [3] [µg/mL] | MIC values [4] [µg/mL] | MIC values [5] [µg/mL] | MIC values (B. fragilis [6]) [µg/mL] | MIC values (L. casei) [µg/mL] | activity on un-targeted organism B. fragilis compared to the levels seen on C. difficile isolate 1803 (B. fragilis [7]) | surviving B. fragilis (B. fragilis [7]) | viable C. difficile recovered [8] [%] | Organism MIC (Trubrum) | Organism MIC (C. difficile) |
| --- | --- | --- | --- | --- | --- | --- | --- | --- | --- | --- | --- | --- |
| VPAKLLRVIDEIPKLFKFLRKHLL-NH2 [CD0714 + BD2-21_NG] | 7.8 | 15.6 | 15.6 | 7.8 | 3.9 | >250 | 125 |  |  |  |  |  |
| LATLKKYLKEHKKMGKIFGAIWPLALGALKNLIK-NH2 [CD0126 + Lys_A1_M3] | 3.9 | 7.8 | 7.8 | 7.8 | 7.8 | >250 | >250 |  |  |  |  |  |
| LATKLKYEKEHKKMGGGGFLKFLKKFFKKLKYY-NH2 [CD0126 + AF5_4G] | 15.6 | 31.3 | 15.6 | 15.6 | 7.8 | >250 | >250 | less active | did not significantly decrease | < 90 |  |  |
| VPAKLLRVIKKIPGGFLKFLKKFFKKLK-NH2 [CD0714 + AF5_2G_M4] | 3.9 | 7.8 | 15.6 | 7.8 | 3.9 | 62.5 | 125 |  |  |  |  |  |
| VLPFPAIPLSRRRACVAAPRPRSRQRAS (Antimicrobial peptide) [PF-168] |  |  |  |  |  |  |  |  |  |  | Trubrum, 50 μM |  |
| GSVIKKRRKRMAKKKHRKLLKKTRIQRRRAGK [PF-527] |  |  |  |  |  |  |  |  |  |  | Trubrum, 25 μM |  |
| VPAKLLRVIKEIPGGFLKFLKKFFKKLK-NH2 [CD0714 + AF5_2G_M7] | 7.8 | 3.9 | 15.6 | 3.9 | 7.8 | >250 | >250 |  |  |  |  |  |
| LATKLKYEKEHKKMGKIFGAIWPLALGALKNLIK-NH2 [CD0126 + Lys_A1_1G] | 7.8 | 7.8 | 15.6 | 15.6 | 15.6 | >250 | >250 |  |  | < 90 |  |  |
| MIRIRSPTKKKLNRNSISDWKSNTSGRFFY (Antimicrobial peptide) [PF-283] |  |  |  |  |  |  |  |  |  |  | Trubrum, 50 μM |  |
| MKRRRCNWCGKLFYLEEKSKEAYCCKECRKKAKKVKK (Antimicrobial peptide) [PF-307] |  |  |  |  |  |  |  |  |  |  | Trubrum, 50 μM |  |
| NILRVLKQVWKGGGKNLRIIRKGIHIIKKY-NH2 (C-terminus assumed) [CD9232_G2_3G] | 3.9 | 7.8 | 31.3 | 7.8 | 7.8 | 15.6 | 125 | less active | did not significantly decrease | < 90 |  |  |
| LSLATFAKIFMTRSNWSLKRFNRL (Antimicrobial peptide) [PF-278] |  |  |  |  |  |  |  |  |  |  | Trubrum, 50 μM |  |
| VPAKLLRVIDEIPGGFLKFLKKFFKKLKY-NH2 [CD0714 + AF5_2G] | 31.3 | 62.5 | 62.5 | 31.3 |  | >250 | >250 |  |  |  |  |  |
| MRFGSLALVAYDSAIKHSWPRPSSVRRLRM (Antimicrobial peptide) [PF-672] |  |  |  |  |  |  |  |  |  |  | Trubrum, 0.78 μM |  |
| GNFYRLFKDILKGGGKNLRIIRKGIHIIKKY-NH2 (C-terminus assumed) [CD8040_G2_3G] | 15.6 | 15.6 | 62.5 | 31.3 | 31.3 | 62.5 | >250 | less active | did not significantly decrease | < 90 |  |  |
| WSRVPGHSDTGWKVWHRW (Antimicrobial peptide) [PF-547] |  |  |  |  |  |  |  |  |  |  | Trubrum, 25 μM |  |
| FELVDWLETNLGKILKSKSA (Antimicrobial peptide) [PF-522] |  |  |  |  |  |  |  |  |  |  |  | C. difficile, 25 |
| VPAKLLRVIDEIPGGKIFGAIWPLALGALKNLIK-NH2 [CD0714 + Lys_A1_2G] | 31.3 | 125 | 31.3 | 62.5 | 15.6 | >250 | >250 |  |  |  |  |  |
